According to PMC9632241 (Antiviral Research, 2022):

Molecular target: SARS-CoV-1 M^pro (Severe acute respiratory syndrome-related coronavirus, UniProt P0C6U8)
Experiment: biochemical

With `CCOC(=O)/C=C/[C@H](C[C@@H]1CCNC1=O)NC(=O)[C@@H](CC(=O)[C@@H](NC(=O)c1cc(C)on1)C(C)C)Cc1ccc(F)cc1` [rupintrivir, 4-{2-(4-fluoro-benzyl)-6-methyl-5-[(5-methyl-isoxazole-3-carbonil)-amino]-4-oxo-heptanoylamino}-5-(2-oxo-pyrrolidin-3-yl)-pentanoicacidethylester] the IC50 was 66 µM.
